From patent US9980943B2, “Methods of treating muscular dystrophy” (BOARD OF REGENTS OF THE NEVADA SYSTEM OF HIGHER EDUCATION, …, priority 2013, dated 2018)

Key:
Assay type in all cases: cell-based, mouse
[1] = test system: α7 integrin (LacZ reporter in α7+/LacZ myotubes); assay: Myotube α7 integrin FDG assay (Burkin assay in myotubes, 96-well); conditions: myotubes
[2] = test system: α7 integrin (LacZ reporter in α7βgal+/− myoblasts); assay: Myoblast α7+/LacZ integrin FDG assay (Burkin assay in myoblasts, 96-well); conditions: α7+/LacZ myoblasts, 96-well
[3] = test system: β-galactosidase in CMV-LacZ C2C12 myotubes; assay: CMV-LacZ secondary screen in C2C12 myotubes (β-Gal stabilizing assay); conditions: for CMV-LACZ in Myotubes, signal relative to DMSO: C2C12 CMV-LacZ myotubes, fold relative to DMSO; for CMV-LACZ in Myotubes (β-galactosidase activity relative to DMSO): CMV-LacZ C2C12 myotubes, 96-well format
From the text: In order to determine compounds that acted to stabilize β-gal in myogenic cells, a CMV-LacZ C2C12 cell line was used in a secondary screen. The EGFP gene from the pEGFP (Clontech) vector was replaced by LACZ PCR product with digests of the vector/PCR product performed using EcoRI (NEB) and NotI (NEB) and ligated using T4 DNA Ligase (NEB) following standard procedures to produce the CMV-LACZ vector. The LACZ gene was generated by PCR from the pBK-RSV (Stratagene) vector using primers LACZ EcoRI F- and LACZ NotI R-. The CMV-LACZ vector was then digested with AfIII (NEB) to linearize the construct, which was then transfected in C2C12 myoblasts using Lipofectamine 2000 (Invitrogen) following the manufacturer's instructions. […] Clonal lines were selected and screened for βgal levels using the myoblast FDG assay.
The assays were used the original 96-well format and new dose-response curves for myoblasts (N=3-6 replicates for each data point), myotubes (N=3-6 replicates for data point), and CMV-LacZ secondary assay (N=2 replicates for each data point) using concentrations of 0.5 μM, 1 μM, 5 μM, 10 μM, 20 μM, and 40 μM (Tables 9-16).

Compound	Burkin Assay in Myotubes (signal relative to DMSO) ([1]; 0.5 uM)	Burkin Assay in Myotubes (signal relative to DMSO) ([1]; 1 uM)	Burkin Assay in Myotubes (signal relative to DMSO) ([1]; 5 uM)	Burkin Assay in Myotubes (signal relative to DMSO) ([1]; 10 uM)	Burkin Assay in Myotubes (signal relative to DMSO) ([1]; 20 uM)	Burkin Assay in Myotubes (signal relative to DMSO) ([1]; 40 uM)	Burkin Assay in Myoblasts, value relative to DMSO ([2]; 0.5 uM)	Burkin Assay in Myoblasts, value relative to DMSO ([2]; 1 uM)	Burkin Assay in Myoblasts, value relative to DMSO ([2]; 5 uM)	Burkin Assay in Myoblasts, value relative to DMSO ([2]; 10 uM)	Burkin Assay in Myoblasts, value relative to DMSO ([2]; 20 uM)	Burkin Assay in Myoblasts, value relative to DMSO ([2]; 40 uM)	CMV-LACZ in Myotubes, signal relative to DMSO ([3]; 5 uM)	CMV-LACZ in Myotubes, signal relative to DMSO ([3]; 10 uM)	CMV-LACZ in Myotubes, signal relative to DMSO ([3]; 20 uM)	CMV-LACZ in Myotubes, signal relative to DMSO ([3]; 40 uM)	CMV-LACZ in Myotubes (β-galactosidase activity relative to DMSO) ([3]; 5 uM)	CMV-LACZ in Myotubes (β-galactosidase activity relative to DMSO) ([3]; 10 uM)	CMV-LACZ in Myotubes (β-galactosidase activity relative to DMSO) ([3]; 20 uM)	CMV-LACZ in Myotubes (β-galactosidase activity relative to DMSO) ([3]; 40 uM)	also measured
c1ccc(-c2cnc(-c3ccccc3)nc2)cc1 [MLS000532078-01]	1.0727	1.078	1.239	1.114	1.078	1.043	1.091	1.076	0.944	0.9431	1.09	1.077	0.791	0.8914	0.9443	0.8623	–	–	–	–	–
Cc1ccc(NC(=O)CC2COc3ccccc3O2)cc1 (stereo not shown) [MLS000534926-01]	1.026	0.9445	1.006	0.9622	1.338	0.8565	1.522	0.9473	0.8586	0.8832	0.5996	0.4222	–	–	–	–	0.9724	0.969	0.9547	0.844	–
Cc1ccc(NC(=O)COc2ccccc2CNC(C)(C)CC(C)(C)C)cc1 [MLS000538580-01]	–	–	–	–	–	–	–	–	–	–	–	–	0.6613	0.5729	0.3838	0.2705	–	–	–	–	Burkin Assay in Myotubes, α7 integrin LacZ reporter signal relative to DMSO ([1]; 0.5 uM): 1.087; Burkin Assay in Myotubes, α7 integrin LacZ reporter signal relative to DMSO ([1]; 1 uM): 1.025; Burkin Assay in Myotubes, α7 integrin LacZ reporter signal relative to DMSO ([1]; 5 uM): 0.8641; Burkin Assay in Myotubes, α7 integrin LacZ reporter signal relative to DMSO ([1]; 10 uM): 0.4774; Burkin Assay in Myotubes, α7 integrin LacZ reporter signal relative to DMSO ([1]; 20 uM): 0.928; Burkin Assay in Myotubes, α7 integrin LacZ reporter signal relative to DMSO ([1]; 40 uM): 0.1825; Burkin Assay in Myoblasts, signal relative to DMSO ([2]; 0.5 uM): 0.9645; Burkin Assay in Myoblasts, signal relative to DMSO ([2]; 1 uM): 0.9097; Burkin Assay in Myoblasts, signal relative to DMSO ([2]; 5 uM): 0.8691; Burkin Assay in Myoblasts, signal relative to DMSO ([2]; 10 uM): 0.5306; Burkin Assay in Myoblasts, signal relative to DMSO ([2]; 20 uM): 0.03863; Burkin Assay in Myoblasts, signal relative to DMSO ([2]; 40 uM): 0.02896
COc1cc(/C=C/c2nc(-c3ccccc3O)n[nH]2)cc(OC)c1OC [MLS000548725-01]	0.8698	0.8418	0.9206	0.8462	1.031	0.2219	0.9132	0.8894	0.8989	0.7645	0.5169	0.07694	–	–	–	–	0.9789	1.126	0.8729	0.332	–
